Here are results for 23 compounds from patent US8993565B2, “(6-oxo-1,6-dihydropyrimidin-2-yl)amide derivatives, preparation thereof and pharmaceutical use thereof as AKT(PKB) phosphorylation inhibitors” (Sanofi, priority 2009, dated 2015).

For orientation: IC50 means the point on the concentration scale where inhibition reaches its midpoint.

The first assay concerns AKT protein phosphorylated on serine 473 (pAKT-S473). Description: Study of pAKT expression in PC3 human prostate carcinoma cells measured by western blotting (Test A). Conditions: PC-3, inhibition of AKT phosphorylation (pAKT-S473), 1 to 2 hours incubation, absolute IC50, mean of two experiments. It counts as cell-based. As to the method:
(§1) The inhibitory activity of the molecules on AKT phosphorylation is measured either by western blotting using the technique described below, or by the MSD Multi-spot Biomarker detection technique from Meso Scale Discovery also described below.
Study of pAKT Expression in PC3 Human Prostate Carcinoma Cells Measured by Western Blotting (Test A):
On day 2, the cells are incubated in the presence or absence of the test products for 1 to 2 hours at 37° C. in the presence of 5% CO2. The molecules, diluted in dimethyl sulphoxide (DMSO Sigma #D2650), are added from a 10-times concentrated stock solution, the final percentage of DMSO being 0.1%. The molecules are tested either at a single concentration of less than or equal to 10 μM, or at increasing concentrations in a range that can extend from less than 1 nM to 10 μM.
After this incubation, the cells are lysed for the preparation of the proteins.
The lysate is centrifuged for 10 min at 6000 rpm. 155 μl of supernatant are recovered. 150 μl are incubated for denaturation for 5 min at 95° C. in the presence of 4× NuPAGE LDS Sample Buffer diluted 4-fold (InVitrogen ref NP0007) and of 10× NuPAGE Sample Reducing Agent diluted 10-fold (InVitrogen ref NP0009). These samples are then frozen at −20° C.
The gel is then transferred on to an Invitrolon PVDF membrane (Invitrogen #LC2007) permeabilised beforehand and for a few seconds in ethanol (Ethanol Fischer Scientific #E/0600DF/15).
The transfer is carried out in a Biorad tank at 30 volts overnight or at 60 volts for 3 hours, in the presence of 20× NUPAGE Transfer Buffer diluted 20-fold (InVitrogen ref NP0006).
The membrane is then saturated in saturating solution composed of TBS (10× Tris Buffered Saline, Sigma #T5912, diluted 10-fold), 0.1% Tween (Sigma #P5927) and 3% BSA (Bovine Albumin Serum Fraction V, Sigma #A4503) for 6 h after overnight transfer or else for 1 h after transfer for a period of 3 h.
Two rinses for min in washing solution composed of TBS and 0.1% Tween 20 are carried out before hybridisation of the secondary antibodies.
The secondary antibodies are diluted 110000th for the rabbit anti-Mouse IgG HRP antibody (W402 Promega) and to 110000th for the goat anti-Rabbit IgG HRP antibody (W401 Promega) in saturating solution, and then shaken for 1 h at ambient temperature.
Two rinses for 30 min in washing solution are carried out and then a rinse for 5 min in H2O is carried out in order to eliminate the remaining Tween 20.
The luminescence is read with the FujiFilm device (Ray Test).
The FUJI device measures the total luminescence signal obtained (AU) for each band selected. It then subtracts the background noise (BG) proportional to the size of the band selected (Area), said background noise being calculated from a specific background noise band, with a view to obtaining the specific signal (AU-BG) for each band. The band obtained in the absence of product and in the presence of 0.1% DMSO is considered to be the 100% signal. The software calculates the % specific activity (Ratio) obtained for each band selected as a function of this 100% signal. The percentage inhibition is calculated for each concentration according to the formula (100%−Ratio).
Two independent experiments make it possible to calculate the mean of the percentages of inhibition obtained at a given concentration for the products tested only at one concentration.
Two independent experiments make it possible to calculate the mean of the IC50s.
A general note: In western blotting, separated proteins are transferred to a membrane and probed.
For `O=C(Cc1nc(N2CCOCC2)cc(=O)[nH]1)Nc1ccccc1` [Example 1, 2-[4-(morpholin-4-yl)-6-oxo-1,6-dihydropyrimidin-2-yl]-N-phenylacetamide], it took 102 nM to reach half-maximal inhibition (IC50).
As to `O=C(Cc1nc(N2CCOCC2)cc(=O)[nH]1)Nc1ccc(F)cc1` [Example 2, N-(4-fluorophenyl)-2-[4-(morpholin-4-yl)-6-oxo-1,6-dihydropyrimidin-2-yl]acetamide], the IC50 is 321 nM.
Same read-out and setting: then `O=C(Cc1nc(N2CCOCC2)cc(=O)[nH]1)Nc1cccc(Cl)c1` [Example 3, N-(3-chlorophenyl)-2-[4-(morpholin-4-yl)-6-oxo-1,6-dihydropyrimidin-2-yl]acetamide], with 100 nM.
In the case of `O=C(Cc1nc(N2CCOCC2)cc(=O)[nH]1)Nc1ccc(F)c(F)c1` [Example 6, N-(3,4-difluorophenyl)-2-[4-(morpholin-4-yl)-6-oxo-1,6-dihydropyrimidin-2-yl]acetamide], the IC50 turned out to be 23 nM.
Consider `COc1cc(NC(=O)Cc2nc(N3CCOCC3)cc(=O)[nH]2)ccc1F` [Example 8, N-(4-fluoro-3-methoxyphenyl)-2-[4-(morpholin-4-yl)-6-oxo-1,6-dihydropyrimidin-2-yl]acetamide], for which the IC50 came to 318 nM.
Still for that read-out and setting: as for `O=C(Cc1nc(N2CCOCC2)cc(=O)[nH]1)Nc1ccccc1F` [Example 9, N-(2-fluorophenyl)-2-[4-(morpholin-4-yl)-6-oxo-1,6-dihydropyrimidin-2-yl]acetamide], the figure is 727 nM.
Compound `Cc1ccccc1NC(=O)Cc1nc(N2CCOCC2)cc(=O)[nH]1` [Example 10, N-(2-methylphenyl)-2-[4-(morpholin-4-yl)-6-oxo-1,6-dihydropyrimidin-2-yl]acetamide] showed an IC50 of 3500 nM.
Still for that read-out and setting: then `COc1ccccc1NC(=O)Cc1nc(N2CCOCC2)cc(=O)[nH]1` [Example 11, N-(2-methoxyphenyl)-2-[4-(morpholin-4-yl)-6-oxo-1,6-dihydropyrimidin-2-yl]acetamide], with 632 nM.
In the case of `O=C(Cc1nc(N2CCOCC2)cc(=O)[nH]1)Nc1ccc(Cl)cc1` [Example 15, N-(4-chlorophenyl)-2-[4-(morpholin-4-yl)-6-oxo-1,6-dihydropyrimidin-2-yl]acetamide], it took 1420 nM to reach half-maximal inhibition (IC50).
`COc1cccc(NC(=O)Cc2nc(N3CCOCC3)cc(=O)[nH]2)c1` [Example 16, N-(3-methoxyphenyl)-2-[4-(morpholin-4-yl)-6-oxo-1,6-dihydropyrimidin-2-yl]acetamide] had a half-maximal inhibitory concentration (IC50) of 850 nM.
Turning to `O=C(Cc1nc(N2CCOCC2)cc(=O)[nH]1)Nc1cccc(C(F)(F)F)c1` [Example 17, 2-[4-(morpholin-4-yl)-6-oxo-1,6-dihydropyrimidin-2-y]-N-[3-(trifluoromethyl)phenyl]acetamide], the midpoint of inhibition, the IC50, lay at 1480 nM.
The compound `O=C(Cc1nc(N2CCOCC2)cc(=O)[nH]1)Nc1cccc(Br)c1` [Example 18, N-(3-bromophenyl)-2-[4-(morpholin-4-yl)-6-oxo-1,6-dihydropyrimidin-2-yl]acetamide] returned an IC50 of 23 nM.
Compound `COC(=O)c1cccc(NC(=O)Cc2nc(N3CCOCC3)cc(=O)[nH]2)c1` [Example 20, methyl 3-({[4-(morpholin-4-yl)-6-oxo-1,6-dihydropyrimidin-2-yl]acetyl}amino)benzoate] yielded an IC50 of 1310 nM. Compared with the last compound, the IC50 is about 57-fold higher.
As for `O=C(Cc1nc(N2CCOCC2)cc(=O)[nH]1)Nc1cccc(C(=O)O)c1` [Example 21, 3-({[4-(morpholin-4-yl)-6-oxo-1,6-dihydropyrimidin-2-yl]acetyl}amino)benzoic acid], the IC50 came to 10000 nM.
With `CC(C)c1cccc(NC(=O)Cc2nc(N3CCOCC3)cc(=O)[nH]2)c1` [Example 22, 2-[4-(morpholin-4-yl)-6-oxo-1,6-dihydropyrimidin-2-yl]-N-[3-(propan-2-yl)phenyl]acetamide], the IC50 came to 350 nM.

In a further assay the test system is AKT protein phosphorylated on serine 473 (P-AKT-S473). Description: Study of pAKT expression in PC3 human prostate carcinoma cells measured by the MSD Multi-spot Biomarker Detection technique (Test B). Conditions: PC-3, inhibition of AKT phosphorylation (P-AKT-S473), MSD sandwich immunoassay, 1 to 2 h incubation, absolute IC50, mean of 2 experiments. In kind it is cell-based. As to the method: as §1
Study of pAKT Expression in PC3 Human Prostate Carcinoma Cells Measured by the MSD Multi-Spot Biomarker Detection Technique from Meso Scale Discovery (Test B):
The primary antibody specific for P-AKT-S473 (Kit #K151CAD) is coated on to an electrode in each well of the 96-well plates of the MSD, kit: after the addition of a protein lysate to each well, the signal is visualised by adding a secondary detection antibody labelled with an electrochemoluminescent compound. The procedure followed is that described in the kit.
On day 2, the cells are incubated in the presence or absence of the test products for 1 to 2 h at 37° C. in the presence of 5% of CO2. The molecules, diluted in dimethyl sulphoxide (DMSO Sigma #D2650), are added from a 20-times concentrated stock solution, the final percentage of DMSO being 0.1%. The molecules are tested either at a single concentration of less than or equal to 10 μM, or at increasing concentrations in a range that can extend from less than 1 nM to 10 μM.
After this incubation, the cells are lysed for the preparation of the proteins. […] At this stage, the plates containing the lysates can be stored at −20° C. or at −80° C.
The wells of the 96-well plates of the MSD kit are saturated for 1 h at ambient temperature with the blocking solution of the MSD kit. Four washes are carried out with 150 μl of Tris Wash Buffer of the MSD kit. The lysates previously prepared are transferred into the 96-well multi-spot plates of the MSD kit and incubated for 1 h at ambient temperature, with shaking. Four washes are carried out with 150 μl of Tris Wash Buffer of the MSD kit. 25 μl of the MSD sulfo-tag detection antibody solution are added to the wells and incubated for 1 h at ambient temperature, with shaking. Four washes are carried out with 150 μl of Tris Wash Buffer of the MSD kit. 150 μl of Read Buffer of the MSD kit are added to the wells and the plates are read immediately on the S12400 instrument from Meso Scale Discovery.
The instrument measures a signal for each well. Wells without cells and containing the lysis buffer serve to determine the background noise that will be subtracted from all the measurements (min). The wells containing cells in the absence of product and in the presence of 0.1% DMSO are considered to be the 100% signal (max). The percentage inhibition is calculated for each concentration of test product according to the following formula: (1-((test-min)(max-min)))×100.
2 independent experiments make it possible to calculate the mean of the IC50 values.
`O=C(Cc1nc(N2CCOCC2)cc(=O)[nH]1)N1CCc2ncccc21` [Example 146, 2-[2-(2,3-dihydro-1H-pyrrolo[3,2-b]pyridin-1-yl)-2-oxoethyl]-6-(morpholin-4-yl)pyrimidin-4(3H)-one] came in with an IC50 of 180 nM.
Compound `O=C(Cc1nc(N2CCOCC2)cc(=O)[nH]1)N1CCc2cc(F)c(F)cc21` [Example 147, 2-[2-(5,6-Difluoro-2,3-dihydroindol-1-yl)-2-oxoethyl]-6-morpholin-4-yl-3H-pyrimidin-4-one] showed an IC50 of 4 nM.
On the same count and under the same terms, then `O=C(Cc1nc(N2CCOCC2)cc(=O)[nH]1)N1CCOc2c(Cl)cccc21` [Example 149, 2-[2-(8-chloro-2,3-dihydro-4H-1,4-benzoxazin-4-yl)-2-oxoethyl]-6-(morpholin-4-yl)pyrimidin-4(3H)-one], with 43 nM; and `Cc1cccc(NC(=O)Cc2nc(N3CCOCC3)cc(=O)[nH]2)c1O` [Example 150, N-(2-hydroxy-3-methylphenyl)-2-[4-(morpholin-4-yl)-6-oxo-1,6-dihydropyrimidin-2-yl]acetamide], with 189 nM.
Take `O=C(Cc1nc(N2CCOCC2)cc(=O)[nH]1)Nc1cccc([N+](=O)[O-])c1O` [Example 151, N-(2-hydroxy-3-nitrophenyl)-2-[4-(morpholin-4-yl)-6-oxo-1,6-dihydropyrimidin-2-yl]acetamide]: the IC50 stood at 29 nM.
With `N#Cc1cccc(NC(=O)Cc2nc(N3CCOCC3)cc(=O)[nH]2)c1O` [Example 152, N-(3-cyano-2-hydroxyphenyl)-2-[4-(morpholin-4-yl)-6-oxo-1,6-dihydropyrimidin-2-yl]acetamide], the midpoint of inhibition, the IC50, lay at 938 nM.
`O=C(Cc1nc(N2CCOCC2)cc(=O)[nH]1)Nc1cccc(C(F)(F)F)c1O` [Example 153, N-[2-hydroxy-3-(trifluoromethyl)phenyl]-2-[4-(morpholin-4-yl)-6-oxo-1,6-dihydropyrimidin-2-yl]acetamide] came in with an IC50 of 49 nM.
Regarding `CC1(C)CN(C(=O)Cc2nc(N3CCOCC3)cc(=O)[nH]2)c2ccccc21` [Example 154, 2-[2-(3,3-dimethyl-2,3-dihydro-1H-indol-1-yl)-2-oxoethyl]-6-(morpholin-4-yl)pyrimidin-4(3H)-one], the IC50 stood at 28 nM. This IC50 lies about 1.8-fold lower than the previous one.
